± gives the standard deviation of the averaged measurements.
Test system: HepaRG
Assay: LDH release cytotoxicity, % of total lysis control; higher = more cytotoxic
Details: 48 h
How it was run: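 Single-lot HepaRG cells on collagen I-coated 96-well plates were exposed for 48 h in duplicate, in serum-free induction medium with 0.5% DMSO, to eight-point half-log series (test chemicals top 100 µM). Total lysis wells received 0.1% Triton X, and LDH leakage into 50 µL spent medium was read as resorufin fluorescence (CytoTox-ONE, Tecan Safire). Percent cytotoxicity was normalized to on-plate vehicle and total lysis controls and averaged over the duplicates.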

SMILES | LDH release cytotoxicity (0.03162 µM) [%] | LDH release cytotoxicity (0.1 µM) [%] | LDH release cytotoxicity (0.3162278 µM) [%] | LDH release cytotoxicity (1 µM) [%] | LDH release cytotoxicity (3.16228 µM) [%] | LDH release cytotoxicity (10 µM) [%] | LDH release cytotoxicity (31.6228 µM) [%] | LDH release cytotoxicity (100 µM) [%] | LDH release cytotoxicity (0.031623 µM) [%] | LDH release cytotoxicity (0.316228 µM) [%] | LDH release cytotoxicity (0.032888 µM) [%] | LDH release cytotoxicity (0.104 µM) [%] | LDH release cytotoxicity (0.328877 µM) [%] | LDH release cytotoxicity (1.04 µM) [%] | LDH release cytotoxicity (3.28877 µM) [%] | LDH release cytotoxicity (10.4 µM) [%] | LDH release cytotoxicity (32.8877 µM) [%] | LDH release cytotoxicity (104 µM) [%]
Clc1ccccc1Cl [1,2-Dichlorobenzene] | -1.68 ± 0.72 | -1.12 ± 0.22 | -2 ± 0.56 | -1.81 ± 0.094 | -1.83 ± 0.1 | -1.2 ± 0.57 | -1.06 ± 0.67 | -0.133 ± 0.15 |  |  |  |  |  |  |  |  |  | 
Cc1cccc([N+](=O)[O-])c1C [1,2-Dimethyl-3-nitrobenzene] | 0.0499 ± 0.58 | -0.56 ± 0.35 | -0.0544 ± 1 | 0.0899 ± 0.093 | -0.155 ± 0.3 | 2.03 ± 0.56 | 1.1 ± 0.079 | 1.87 ± 0.3 |  |  |  |  |  |  |  |  |  | 
Cc1ccc([N+](=O)[O-])cc1C [1,2-Dimethyl-4-nitrobenzene] | -1.16 ± 0.66 | -1.81 ± 0.53 | -1.44 ± 0.14 | -1.1 ± 0.27 | -1.56 ± 0.13 | -1.07 ± 0.013 | -0.524 ± 0.73 | 0.459 ± 1.3 |  |  |  |  |  |  |  |  |  | 
c1ccc(NNc2ccccc2)cc1 [1,2-Diphenylhydrazine] | -1.61 ± 1.4 | -1.5 ± 0.65 | -1.76 ± 0.62 | -2.09 ± 1.2 | -1.82 ± 0.17 | -1.49 ± 0.079 | -1.72 ± 0.59 | -0.591 ± 1 |  |  |  |  |  |  |  |  |  | 
Nc1ccccc1N [1,2-Phenylenediamine] | -3.74 ± 0.12 | -3.27 ± 0.9 | -2.8 ± 0.61 | -1.88 ± 0.13 | -3.1 ± 0.2 | -2.74 ± 0.21 | -2.23 ± 1.2 | -1.05 ± 2.2 |  |  |  |  |  |  |  |  |  | 
CC(O)CO (configuration not stated) [1,2-Propylene glycol] | -1.3 ± 0.42 | -0.939 ± 1.1 | -1.49 ± 0.33 | -1.94 ± 0.42 | -1.55 ± 0.095 | -1.06 ± 0.055 | -1.08 ± 0.23 | 0.548 ± 0.21 |  |  |  |  |  |  |  |  |  | 
Cc1cc(C)cc(C)c1 [1,3,5-Trimethylbenzene] | -1.84 ± 0.57 | -1.84 ± 0.86 | -2.21 ± 0.96 | -2.65 ± 0.24 | -2.52 ± 0.57 | -1.42 ± 0.71 | -0.727 ± 0.4 | 1.41 ± 0.37 |  |  |  |  |  |  |  |  |  | 
Nc1cccc(N)c1 [1,3-Benzenediamine] | -1.18 ± 0.7 | -2.11 ± 0.27 | -1.93 ± 0.12 | -1.36 ± 0.52 | -1 ± 0.48 | -0.806 ± 0.47 | -1.17 ± 0.023 | 0.323 ± 1.3 |  |  |  |  |  |  |  |  |  | 
O=C(O)c1cccc(C(=O)O)c1 [1,3-Benzenedicarboxylic acid] | -2.12 ± 0.44 | -1.69 ± 0.34 | -1.63 ± 0.21 | -2.28 ± 0.37 | -2.24 ± 0.28 | -1.69 ± 0.35 | 0.0627 ± 0.62 | 4.89 ± 0.58 |  |  |  |  |  |  |  |  |  | 
CC(O)CCO (configuration not stated) [1,3-Butanediol] | -2.25 ± 1.4 | -2.15 ± 1.1 | -2.36 ± 0.29 | -2.52 ± 0.74 | -2.18 ± 0.92 | -2.33 ± 0.35 | -1.67 ± 0.8 | -0.781 ± 0.99 |  |  |  |  |  |  |  |  |  | 
CC1(C)C(=O)N(Br)C(=O)N1Br [1,3-Dibromo-5,5-dimethylhydantoin] | -0.925 ± 1.3 | -0.284 ± 1.3 | -0.732 ± 0.032 | -1.11 ± 0.88 | -0.698 ± 0.06 | 0.338 ± 1.5 | -0.0587 ± 0.89 | 0.735 ± 0.36 |  |  |  |  |  |  |  |  |  | 
OC(CCl)CCl [1,3-Dichloro-2-propanol] | -0.194 ± 0.51 | -0.771 ± 0.2 | -1.03 ± 0.57 | -0.871 ± 0.15 | -0.223 ± 0.23 | -0.32 ± 0.6 | 0.161 ± 0.38 | -0.702 ± 0.99 |  |  |  |  |  |  |  |  |  | 
CC1(C)C(=O)N(Cl)C(=O)N1Cl [1,3-Dichloro-5,5-dimethylhydantoin] | 0.112 ± 0.0031 | -1.567 ± 0.014 | -0.979 ± 0.12 | -0.604 ± 0.23 | -0.443 ± 0.098 | -0.243 ± 0.15 | 1.54 ± 2 | 0.626 ± 0.89 |  |  |  |  |  |  |  |  |  | 
Clc1cccc(Cl)c1 [1,3-Dichlorobenzene] | -0.441 ± 1.9 | -1.62 ± 0.022 | -0.906 ± 0.34 | -1.05 ± 0.054 | -1.07 ± 0.023 | 0.199 ± 1.1 | 3.191 ± 0.028 | 25.9 ± 0.28 |  |  |  |  |  |  |  |  |  | 
CC(C)c1cccc(C(C)C)c1 [1,3-Diisopropylbenzene] |  | -2.55 ± 1.5 |  | -4.25 ± 0.7 | -3.82 ± 0.32 | -2.51 ± 1.5 | -1.16 ± 0.34 | 0.451 ± 1.2 | -1.99 ± 0.73 | -2.42 ± 1.3 |  |  |  |  |  |  |  | 
N=C(Nc1ccccc1)Nc1ccccc1 [1,3-Diphenylguanidine] | -0.803 ± 1 | -2.15 ± 0.34 | -1.51 ± 0.42 | -1.87 ± 1.8 | -1.59 ± 0.016 | -1.1 ± 0.56 | -1.1 ± 0.68 | 0.505 ± 0.92 |  |  |  |  |  |  |  |  |  | 
O=S1(=O)CCCO1 [1,3-Propane sultone] | -0.997 ± 0.28 | -2.2 ± 0.45 | -1.51 ± 0.54 | -1.38 ± 0.031 | -1.5 ± 0.31 | -1.53 ± 0.35 | -0.817 ± 0.19 | -0.0166 ± 1.5 |  |  |  |  |  |  |  |  |  | 
Clc1ccc(Cl)cc1 [1,4-Dichlorobenzene] | -0.401 ± 1.1 | -1.22 ± 0.19 | -1.55 ± 0.4 | -0.354 ± 1.7 | -0.734 ± 0.3 | -0.586 ± 1.3 | 0.224 ± 1.5 | 5.07 ± 3.4 |  |  |  |  |  |  |  |  |  | 
C1=CCCC=CCCC=CCC1 [1,5,9-Cyclododecatriene] |  |  |  |  |  |  |  |  |  |  | 0.325 ± 0.27 | -1.08 ± 0.16 | -2.13 ± 1.5 | -1.59 ± 0.41 | -1.09 ± 0.33 | -1.273 ± 0.012 | -1.4 ± 0.08 | 0.633 ± 0.4

Source: the supplement of paper PMC7840683
